Reference: patent publication US10028961B2, “Therapeutically active compounds and their methods of use” (AGIOS PHARMACEUTICALS, INC., priority 2013, dated 2018)

How the values were obtained:
[1] = biological target: IDH1-R132 homodimer enzyme (R132H) (Homo sapiens (Human), UniProt O75874, R132H); test: In vitro assay IDH1-R132H homodimer, NADPH depletion assay; assay type: biochemical
Experimental: (§1) The following describes the experimental procedures that can be used to obtain data on columns 3 and 6 of Table 4.
(§2) A test compound is prepared as 10 mM stock in DMSO and diluted to 50× final concentration in DMSO, for a 50 μl reaction mixture. IDH enzyme activity converting alpha-ketoglutarate to 2-hydroxyglutaric acid is measured using a NADPH depletion assay. In the assay the remaining cofactor is measured at the end of the reaction with the addition of a catalytic excess of diaphorase and resazurin, to generate a fluorescent signal in proportion to the amount of NADPH remaining. […] The reaction is started with the addition of 10 μl of Substrate Mix ([…], 5 mM alpha-ketoglutarate, in Assay Buffer) and the mixture is incubated for 90 minutes at room temperature.

[2] = biological target: IDH1 R132C (Homo sapiens (Human), UniProt O75874, R132C); test: In vitro assay IDH1 R132C homodimer, NADPH depletion assay; assay type: biochemical
Chain of IDH1 R132C (O75874 whole entry R132C): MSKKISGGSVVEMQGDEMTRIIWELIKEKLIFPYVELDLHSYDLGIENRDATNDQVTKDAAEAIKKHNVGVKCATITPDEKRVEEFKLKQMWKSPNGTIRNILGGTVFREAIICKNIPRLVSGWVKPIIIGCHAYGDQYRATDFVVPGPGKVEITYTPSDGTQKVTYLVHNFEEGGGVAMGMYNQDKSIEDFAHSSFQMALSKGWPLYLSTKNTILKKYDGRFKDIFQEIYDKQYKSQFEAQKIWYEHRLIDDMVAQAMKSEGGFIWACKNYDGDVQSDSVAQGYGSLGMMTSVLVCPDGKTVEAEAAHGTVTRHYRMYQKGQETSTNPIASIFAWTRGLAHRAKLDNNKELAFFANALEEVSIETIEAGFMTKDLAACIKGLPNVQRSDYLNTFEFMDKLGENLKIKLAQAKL
Experimental: as §1, §2
The concentration of NADPH and alpha-ketoglutarate in the Substrate Buffer is 20 μM and 1 mM, respectively.

[3] = biological target: IDH2 R140Q (Homo sapiens (Human), UniProt P48735, R140Q); test: In vitro assay for IDH2m R140Q inhibitors, cofactor depletion assay; assay type: biochemical; conditions: IDH2 R140Q enzyme
Chain of IDH2 R140Q (P48735 40-452 R140Q): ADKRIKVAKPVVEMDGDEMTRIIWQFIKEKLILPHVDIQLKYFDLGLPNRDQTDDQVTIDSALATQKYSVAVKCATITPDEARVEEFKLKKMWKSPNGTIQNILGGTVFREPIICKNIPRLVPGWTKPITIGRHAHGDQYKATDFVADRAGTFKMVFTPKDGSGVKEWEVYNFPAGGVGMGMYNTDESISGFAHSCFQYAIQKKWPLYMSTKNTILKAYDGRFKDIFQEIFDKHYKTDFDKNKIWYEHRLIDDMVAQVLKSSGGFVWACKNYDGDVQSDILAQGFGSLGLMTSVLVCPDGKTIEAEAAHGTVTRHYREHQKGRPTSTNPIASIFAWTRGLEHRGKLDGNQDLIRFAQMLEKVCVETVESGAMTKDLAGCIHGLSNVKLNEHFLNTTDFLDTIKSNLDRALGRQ
Outline: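 Remaining cofactor measured fluorimetrically: diaphorase/resazurin Stop Mix […], halting the reaction. Before that, mutant enzyme and compound sat 1 h at RT, then substrate mix (4 μM NADPH, 1.6 mM α-KG) was added for 16 h at RT.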

[4] = biological target: IDH1 wt/IDH1 R132H heterodimer (Homo sapiens (Human), UniProt O75874, R132H); test: In vitro assay for IDH1m R132H inhibitors, IDH1 wt/IDH1 R132H heterodimer, NADPH depletion (diaphorase/resazurin); assay type: biochemical; conditions: IDH1 wt/R132H heterodimer, NADPH/NADP, not saturated; read-out: IDH1 wt/R132H NADPH/NADP IC50 not saturated
Chain of IDH1 wt/IDH1 R132H heterodimer (O75874 whole entry R132H): as the sequence (O75874 whole entry R132C) above, with C132H counted along it
Chain of IDH1 wt/IDH1 R132H heterodimer (O75874 whole entry, stated change not applied): as the sequence (O75874 whole entry R132C) above, with C132R counted along it
Outline: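 Read-out is NADPH left after α-KG reduction to 2-HG, measured via resorufin fluorescence after 5 min diaphorase/resazurin step at 25° C. Enzyme is sf9-expressed IDH1wt-his/IDH1R132H-flag heterodimer, pre-incubated 1 hr at room temperature with compound and cofactor. IC50s from DMSO stocks diluted 1:50.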

[5] = test system: U87MG pLVX-IDH2 R140Q-neo cells; test: U87MG pLVX-IDH2 R140Q-neo cell based assay, 2-HG by LC-MS; conditions: Homo sapiens, U-87 MG
[6] = biological target: IDH1 wt/IDH1 R132C heterodimer (Homo sapiens (Human), UniProt O75874, R132C); test: In vitro assay for IDH1m R132C inhibitors, IDH1 wt/IDH1 R132C heterodimer, NADPH depletion (diaphorase/resazurin); assay type: biochemical; conditions: NADPH/NADP
Chain of IDH1 wt/IDH1 R132C heterodimer (O75874 whole entry R132C): as the sequence (O75874 whole entry R132C) above
Chain of IDH1 wt/IDH1 R132C heterodimer (O75874 whole entry, stated change not applied): as the sequence (O75874 whole entry R132C) above, with C132R counted along it
Experimental: The following describes the experimental procedures that can be used to obtain data on columns 2 and 4 of Table 4 and column 2 of Table 5.
In the primary reaction, the reduction of α-KG acid to 2-HG is accompanied by a concomitant oxidation of NADPH to NADP. The amount of NADPH remaining at the end of the reaction time is measured in a secondary diaphorase/resazurin reaction in which the NADPH is consumed in a 1:1 molar ratio with the conversion of resazurin to the highly fluorescent resorufin.
The mixture of compound, enzyme, and cofactor is pre-incubated at room temperature for 1 hr prior to the addition of alpha-ketoglutarate. To perform the secondary reaction, 10 uL of 1× buffer containing 36 μg/ml diaphorase and […] resazurin is added to the primary reaction and incubated for a further 5 minutes at 25° C. Florescence is read on a Spectramax platereader at Ex 544 Em 590. Compounds or compound dilutions are prepared in 100% DMSO concentration and diluted 1:50 into the final reaction. […] IC50s are determined.
IDH1 or IDH2 wildtype (wt) and mutant heterodimers are expressed and purified by methods known in the art. For example, IDH1wt/R132m heterodimer is expressed and purified as follows. Co-expression of IDH1wt-his and IDH1R132C-flag is carried out in sf9 insect cells. Cells (25 g) are resuspended in 250 ml of 50 mM Tirs, 500 mM NaCl, pH7.4, at 4° C. with stirring. Cells are disrupted with 4 passes through an M-Y110 Micro fluidizer (Microfluidics) set to 500 psi, and then centrifuged at 22,000 rcf for 20 min at 4° C. The supernatant is harvested and loaded at 15 cm/h on a Histrap FF 5*1 ml column (GE) which is equilibrated with 50 mM Tirs, 500 mM NaCl, pH7.4. Host cell contaminants are removed by washing the column with equilibration buffer followed by equilibration buffer containing 20 mM imidazole and 60 mM imidazole to baseline. IDH1wt-his homodimer and IDH1wt-his/IDH1R132C-flag are eluted by equilibration buffer containing 250 mM imidazole. Fractions eluted by 250 mM imidazole are pooled together and loaded at 15 cm/h onto a column pre-packed with 10 ml ANTI-FLAG® M2 Affinity Gel (Sigma), the column is equilibrated with 50 mM Tris, 500 mM NaCl, pH7.4. After washing with equilibration buffer, IDH1wt-his/IDH1R132C-flag heterodimer is eluted by equilibration buffer containing flag peptide (0.2 mg/ml). Aliquots of IDH1wt-his/IDH1R132C-flag are flash frozen in liquid N2 and stored at −80° C. Same conditions are used for the purification of IDH1wt-his/IDH1R132H-flag.

[7] = biological target: IDH1-R132H homodimer enzyme (Homo sapiens (Human), UniProt O75874, R132H); test: In vitro assay IDH1-R132H homodimer, NADPH depletion assay with NADPH/NADP preincubation; assay type: biochemical; conditions: 5 μM NADPH and 37.5 μM NADP
Chain of IDH1-R132H homodimer enzyme (O75874 whole entry R132H): as the sequence (O75874 whole entry R132C) above, with C132H counted along it
Outline: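 Compounds were added from DMSO at 50× final concentration, and the mutant enzyme was incubated 60 min at room temperature after starting with a substrate mix holding NADPH and 5 mM alpha-ketoglutarate. Residual cofactor, read by fluorescence after excess diaphorase and resazurin, reflects enzyme turnover.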

[8] = test system: HT1080 cells; test: Cellular assay for IDH1m R132C inhibitors, 2-HG by LC-MS in HT1080 cells; assay type: cell-based; conditions: Homo sapiens, HT-1080
Outline: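 2-HG levels were measured by LC-MS in culture medium sampled 48 h after compound addition (0.2% DMSO) to HT1080 cells seeded overnight at 5000 cells/well. A CellTiter-Glo luminescence read at 72 h gave cell viability.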

Chain of IDH1-R132 homodimer enzyme (R132H) (O75874 whole entry R132H): as the sequence (O75874 whole entry R132C) above, with C132H counted along it

Row | SMILES | IC50 [1] | IC50 [2] | also measured
1 | C[C@@H](Nc1nc(NC(=O)c2ccccc2)nc(-c2cccc(C(F)(F)F)n2)n1)C1CC1 [Compound 29] | 100 to 1000 nM | > 1000 nM | –
2 | COc1ccc(F)c(-c2nc(NC(C)C)nc(NC(C)(C)C#N)n2)c1 [Compound 32] | > 1000 nM | > 1000 nM | –
3 | CC(Nc1nc(N[C@H](C)C2CC2)nc(-c2cccc(C(F)(F)F)n2)n1)c1ccccn1 (stereo partly drawn) [Compound 25, N^2-((R)-1-cyclopropylethyl)-N^4-(1-(pyridin-2-yl)ethyl)-6-(6-(trifluoromethyl)pyridin-2-yl)-1,3,5-triazine-2,4-diamine] | > 1000 nM | > 1000 nM | –
4 | C[C@@H](Nc1nc(N[C@H](C)C2CC2)nc(-c2ccccc2F)n1)C1CC1 [Compound 6] | > 1000 nM | 100 to 1000 nM | –
5 | C[C@@H](Nc1nc(N[C@H](C)C2CC2)nc(-c2cccc(CO)c2)n1)C1CC1 [Compound 16] | > 1000 nM | > 1000 nM | IC50 [3]: < 50 nM
6 | CC(C)CNc1nc(NC(C)(C)C#N)nc(-c2cc(O)ccc2F)n1 [Compound 86] | > 1000 nM | > 1000 nM | IC50 [4]: 50 to 100 nM
7 | C[C@@H](Nc1nc(N[C@H](C)C2CC2)nc(-c2cccc(N3CCC3)n2)n1)C1CC1 [Compound 51] | > 1000 nM | > 1000 nM | –
8 | CC(C)Nc1nc(NC(C)C)nc(-c2cccc(C(F)(F)F)n2)n1 [Compound 3] | 100 to 1000 nM | 50 to 100 nM | –
9 | FC1(F)CCC(Nc2nc(NC3CCC(F)(F)CC3)nc(-n3cc(Cl)cn3)n2)CC1 [Compound 302] | – | – | IC50 [4]: 100 to 1000 nM; IC50 [5]: 100 to 1000 nM; IC50 [6]: 100 to 1000 nM; IC50 [7]: > 1000 nM; IC50 [3]: 100 to 1000 nM
10 | CCN(CC)c1nc(N[C@H](C)C2CC2)nc(-c2cccc(Cl)n2)n1 [Compound 46] | > 1000 nM | > 1000 nM | –
11 | FC1(F)CCC(Nc2nc(NC3CCC(F)(F)CC3)nc(-c3ccnc(C(F)(F)F)n3)n2)CC1 [Compound 270] | – | – | IC50 [4]: 100 to 1000 nM; IC50 [5]: 100 to 1000 nM; IC50 [6]: 100 to 1000 nM; IC50 [7]: > 1000 nM; IC50 [3]: 100 to 1000 nM
12 | C[C@@H](Nc1nc(N[C@H](C)C2CC2)nc(-n2cc(I)cn2)n1)C1CC1 [Compound 279] | – | – | IC50 [4]: 100 to 1000 nM; IC50 [5]: 100 to 1000 nM; IC50 [6]: 100 to 1000 nM; IC50 [7]: > 1000 nM; IC50 [3]: 100 to 1000 nM
13 | CC(C)Nc1nc(NC(C)(C)C#N)nc(-c2cc(O)ccc2F)n1 [Compound 35] | > 1000 nM | > 1000 nM | –
14 | CC(C)(CO)Nc1nc(Nc2ccnc(C(C)(F)F)c2)nc(-c2cccc(C(F)(F)F)n2)n1 [Compound 49] | > 1000 nM | > 1000 nM | –
15 | FC1(F)CCC(Nc2nc(NC3CCC(F)(F)CC3)nc(-c3cccc(C(F)(F)F)n3)n2)CC1 [Compound 41] | 50 to 100 nM | > 1000 nM | –
16 | CC(Nc1nc(N[C@H](C)C2CC2)nc(-c2cccc(C(F)(F)F)n2)n1)c1cccc(C(F)(F)F)c1 (some centres unmarked) [Compound 27] | 50 to 100 nM | 100 to 1000 nM | –
17 | C[C@@H](Nc1nc(NC2CCC(F)(F)CC2)nc(-c2cccc(C(F)(F)F)n2)n1)C1CC1 [Compound 50] | < 50 nM | 50 to 100 nM | IC50 [4]: < 50 nM
18 | C[C@@H](Nc1nc(N[C@@H]2C[C@H]2c2ccccc2)nc(-c2cccc(C(F)(F)F)n2)n1)C1CC1 [Compound 23] | 50 to 100 nM | 50 to 100 nM | –
19 | FC(F)(F)c1cccc(-c2nc(NC3CC4CC4C3)nc(NC3CC4CC4C3)n2)n1 (centres unmarked) [Compound 36] | < 50 nM | 50 to 100 nM | IC50 [4]: < 50 nM
20 | FC(F)(F)c1cccc(-c2nc(NCC3CC3)cc(NCC3CC3)n2)n1 [Compound 419] | > 1000 nM | – | IC50 [5]: 100 to 1000 nM; IC50 [7]: 100 to 1000 nM
21 | Cc1cc(-c2nc(NC3CC(F)(F)C3)nc(NC3CC(F)(F)C3)n2)no1 [Compound 311] | – | – | IC50 [4]: > 1000 nM; IC50 [6]: ≥ 1000 nM; IC50 [7]: > 1000 nM
22 | C[C@@H](Nc1nc(N[C@H]2CCCC[C@@H]2O)nc(-c2cccc(C(F)(F)F)n2)n1)C1CC1 [Compound 42] | 50 to 100 nM | 100 to 1000 nM | –
23 | Fc1cc(F)cc(Nc2nc(NC3CCC(F)(F)CC3)nc(-c3nc(F)ccc3F)n2)c1 [Compound 260] | – | – | IC50 [4]: 100 to 1000 nM; IC50 [5]: < 50 nM; IC50 [6]: 50 to 100 nM; IC50 [8]: > 1000 nM; IC50 [3]: < 50 nM
24 | C[C@@H](Nc1nc(N[C@H](C)C2CC2)nc(-c2cccc(Cl)n2)n1)C1CC1 [Compound 45] | < 50 nM | 50 to 100 nM | –

Continued, in another order:

Row | IC50 [1] | IC50 [2] | SMILES | also measured
25 | > 1000 nM | > 1000 nM | C[C@@H](Nc1nc(NCc2ccccn2)nc(-c2cccc(C(F)(F)F)n2)n1)C1CC1 [Compound 24, (R)-N^2-(1-cyclopropylethyl)-N^4-(pyridin-2-ylmethyl)-6-(6-(trifluoro-methyl)pyridin-2-yl)-1,3,5-triazine-2,4-diamine] | –
26 | 50 to 100 nM | > 1000 nM | C[C@@H](Nc1nc(NC(C)(C)C#N)nc(-c2cccc(C(F)(F)F)n2)n1)C1CC1 [Compound 37] | –
27 | > 1000 nM | – | C[C@@H](Nc1nc(N[C@H](C)C2CC2)nc(-c2cccc(C(F)(F)F)n2)n1)C(=O)O [Compound 47] | IDH1 R132C IC50 [2]: No Fit
28 | > 1000 nM | – | C[C@@H](Nc1nc(N[C@H](C)C2CC2)nc(-c2cccc(C(F)(F)F)n2)n1)C(=O)N(C)C [Compound 48] | IDH1 R132C IC50 [2]: No Fit
29 | 50 to 100 nM | 100 to 1000 nM | C[C@@H](Nc1nc(NC2CCOC2)nc(-c2cccc(C(F)(F)F)n2)n1)C1CC1 (some centres unmarked) [Compound 38] | –
30 | > 1000 nM | > 1000 nM | CC(=O)CNc1nc(N[C@H](C)C2CC2)nc(-c2cccc(C(F)(F)F)n2)n1 [Compound 15] | –
31 | 100 to 1000 nM | > 1000 nM | C[C@@H](Nc1nc(N[C@H]2CCC[C@H]2O)nc(-c2cccc(C(F)(F)F)n2)n1)C1CC1 [Compound 43] | –
32 | 100 to 1000 nM | > 1000 nM | COCC(C)Nc1nc(N[C@H](C)C2CC2)nc(-c2cccc(C(F)(F)F)n2)n1 (some centres unmarked) [Compound 44] | –
33 | > 1000 nM | – | C[C@@H](Nc1nc(NCC(N)=O)nc(-c2cccc(C(F)(F)F)n2)n1)C1CC1 [Compound 5] | IDH1 R132C IC50 [2]: No Fit
34 | 50 to 100 nM | 50 to 100 nM | CC(C#N)Nc1nc(N[C@H](C)C2CC2)nc(-c2cccc(C(F)(F)F)n2)n1 (some centres unmarked) [Compound 40] | –
